Data taken from the supplement of paper PMC3937590.

Assays:
Assay in all cases: -log10 GI50 (growth inhibition 50%) (-log10(M)); higher = more potent growth inhibition
BT483 = tested on: BT483
Summary of the method: (§1)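 The reported figure is the negative logarithm of GI50, defined as the molar concentration that produces the set level of growth inhibition. The logarithm is base 10. It comes from a Gompertz curve fitted by nonlinear least squares to 72-hour luminescence data from breast cancer cell lines given nine doses in 1:5 serial dilution, in triplicate, with a time-zero plate as reference. A < qualifier marks values equal to the top dose.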

SUM185PE = tested on: SUM185PE
Summary of the method: as §1

S1 = tested on: S1
Summary of the method: as §1

SUM159PT = tested on: SUM159PT
Summary of the method: as §1

HCC1937 = tested on: HCC1937
Summary of the method: as §1

600MPE = tested on: 600MPE
Summary of the method: as §1

HCC70 = tested on: HCC70
Summary of the method: as §1

MDAMB468 = tested on: MDAMB468
Summary of the method: as §1

MDAMB175VII = tested on: MDAMB175VII
Summary of the method: as §1

MDAMB157 = tested on: MDAMB157
Summary of the method: as §1

HCC1187 = tested on: HCC1187
Summary of the method: as §1

MCF7 = tested on: MCF7
Summary of the method: as §1

AU565 = tested on: AU565
Summary of the method: as §1

MCF10A = tested on: MCF10A
Summary of the method: as §1

BT474 = tested on: BT474
Summary of the method: as §1

SUM52PE = tested on: SUM52PE
Summary of the method: as §1

MDAMB361 = tested on: MDAMB361
Summary of the method: as §1

BT549 = tested on: BT549
Summary of the method: as §1

MDAMB453 = tested on: MDAMB453
Summary of the method: as §1

SKBR3 = tested on: SKBR3
Summary of the method: as §1

HCC1143 = tested on: HCC1143
Summary of the method: as §1

HCC3153 = tested on: HCC3153
Summary of the method: as §1

HCC1569 = tested on: HCC1569
Summary of the method: as §1

HCC1806 = tested on: HCC1806
Summary of the method: as §1

ZR75B = tested on: ZR75B
Summary of the method: as §1

LY2 = tested on: LY2
Summary of the method: as §1

MDAMB415 = tested on: MDAMB415
Summary of the method: as §1

UACC893 = tested on: UACC893
Summary of the method: as §1

CAMA1 = tested on: CAMA1
Summary of the method: as §1

HCC1419 = tested on: HCC1419
Summary of the method: as §1

ZR751 = tested on: ZR751
Summary of the method: as §1

T47D = tested on: T47D
Summary of the method: as §1

MCF10F = tested on: MCF10F
Summary of the method: as §1

HS578T = tested on: HS578T
Summary of the method: as §1

MDAMB231 = tested on: MDAMB231
Summary of the method: as §1

HCC1954 = tested on: HCC1954
Summary of the method: as §1

HCC1395 = tested on: HCC1395
Summary of the method: as §1

HCC38 = tested on: HCC38
Summary of the method: as §1

MDAMB134VI = tested on: MDAMB134VI
Summary of the method: as §1

HBL100 = tested on: HBL100
Summary of the method: as §1

MDAMB436 = tested on: MDAMB436
Summary of the method: as §1

SUM149PT = tested on: SUM149PT
Summary of the method: as §1

MCF12A = tested on: MCF12A
Summary of the method: as §1

HCC2185 = tested on: HCC2185
Summary of the method: as §1

HCC1428 = tested on: HCC1428
Summary of the method: as §1

SUM1315MO2 = tested on: SUM1315MO2
Summary of the method: as §1

HCC202 = tested on: HCC202
Summary of the method: as §1

SUM229PE = tested on: SUM229PE
Summary of the method: as §1

184A1 = tested on: 184A1
Summary of the method: as §1

UACC812 = tested on: UACC812
Summary of the method: as §1

SUM102PT = tested on: SUM102PT
Summary of the method: as §1

SUM44PE = tested on: SUM44PE
Summary of the method: as §1

184B5 = tested on: 184B5
Summary of the method: as §1

COc1cc2ncnc(Nc3cccc(Cl)c3)c2cc1OC [AG1478]
-log10 GI50 (BT483): < 3.78 | -log10 GI50 (SUM185PE): < 3.78 | -log10 GI50 (S1): 7.25 | -log10 GI50 (SUM159PT): 4.76 | -log10 GI50 (HCC1937): 4.89 | -log10 GI50 (600MPE): 4.11 | -log10 GI50 (HCC70): 4.21 | -log10 GI50 (MDAMB468): < 3.78 | -log10 GI50 (MDAMB175VII): 6.08 | -log10 GI50 (MDAMB157): 4.48 | -log10 GI50 (HCC1187): < 3.78 | -log10 GI50 (MCF7): 4.05 | -log10 GI50 (AU565): 4.79 | -log10 GI50 (MCF10A): 6.65 | -log10 GI50 (BT474): 6.17 | -log10 GI50 (SUM52PE): < 3.78 | -log10 GI50 (MDAMB361): 4.82 | -log10 GI50 (BT549): 4.33 | -log10 GI50 (MDAMB453): < 3.78 | -log10 GI50 (SKBR3): 5.4 | -log10 GI50 (HCC1143): < 3.78 | -log10 GI50 (HCC3153): < 3.78 | -log10 GI50 (HCC1569): 5.26 | -log10 GI50 (HCC1806): 4.63 | -log10 GI50 (ZR75B): < 3.78 | -log10 GI50 (LY2): < 3.78 | -log10 GI50 (MDAMB415): < 3.78 | -log10 GI50 (UACC893): 6.39 | -log10 GI50 (CAMA1): 4.46 | -log10 GI50 (HCC1419): 5.92 | -log10 GI50 (ZR751): < 3.78 | -log10 GI50 (T47D): 4.74 | -log10 GI50 (MCF10F): 6.69 | -log10 GI50 (HS578T): 4.06 | -log10 GI50 (MDAMB231): < 3.78 | -log10 GI50 (HCC1954): 5.64 | -log10 GI50 (HCC1395): 4.15 | -log10 GI50 (HCC38): 3.9 | -log10 GI50 (MDAMB134VI): 4.32 | -log10 GI50 (HBL100): < 3.78 | -log10 GI50 (MDAMB436): 4.09 | -log10 GI50 (SUM149PT): 5.93 | -log10 GI50 (MCF12A): 7.16 | -log10 GI50 (HCC2185): 4.57 | -log10 GI50 (HCC1428): < 3.78 | -log10 GI50 (SUM1315MO2): 6.08 | -log10 GI50 (HCC202): 5.75 | -log10 GI50 (SUM229PE): < 3.78

CC[C@@]1(O)C(=O)OCc2c1cc1n(c2=O)Cc2cc3c(CN(C)C)c(O)ccc3nc2-1 [Topotecan]
-log10 GI50 (BT483): 7.38 | -log10 GI50 (SUM185PE): 7.2 | -log10 GI50 (184A1): 6.88 | -log10 GI50 (S1): 4.63 | -log10 GI50 (SUM159PT): 6.65 | -log10 GI50 (UACC812): 7.3 | -log10 GI50 (HCC70): 6.3 | -log10 GI50 (MDAMB468): 7.66 | -log10 GI50 (MDAMB175VII): 5.95 | -log10 GI50 (MDAMB157): 6.4 | -log10 GI50 (HCC1187): 6.51 | -log10 GI50 (MCF7): 5.89 | -log10 GI50 (AU565): 7.73 | -log10 GI50 (MCF10A): 7.23 | -log10 GI50 (BT474): 5.6 | -log10 GI50 (SUM52PE): 8.08 | -log10 GI50 (MDAMB361): 6.03 | -log10 GI50 (BT549): 7.62 | -log10 GI50 (MDAMB453): 7.07 | -log10 GI50 (SKBR3): 7.95 | -log10 GI50 (HCC1143): 6.58 | -log10 GI50 (HCC3153): 6.68 | -log10 GI50 (HCC1569): 5.8 | -log10 GI50 (HCC1806): 7.69 | -log10 GI50 (ZR75B): 7.26 | -log10 GI50 (LY2): 6.59 | -log10 GI50 (MDAMB415): 6.73 | -log10 GI50 (UACC893): 6.59 | -log10 GI50 (CAMA1): 6.4 | -log10 GI50 (HCC1419): 6.45 | -log10 GI50 (ZR751): 7.16 | -log10 GI50 (SUM102PT): 6.12 | -log10 GI50 (MCF10F): 6.67 | -log10 GI50 (HS578T): 4.8 | -log10 GI50 (MDAMB231): 5.67 | -log10 GI50 (HCC1954): 6.55 | -log10 GI50 (SUM44PE): 6.43 | -log10 GI50 (HCC1395): 7.82 | -log10 GI50 (HCC38): 8.61 | -log10 GI50 (MDAMB134VI): 6.94 | -log10 GI50 (HBL100): 7.87 | -log10 GI50 (MDAMB436): 7.65 | -log10 GI50 (MCF12A): 7.58 | -log10 GI50 (HCC2185): 7.39 | -log10 GI50 (HCC1428): 6.35 | -log10 GI50 (SUM1315MO2): 8.08 | -log10 GI50 (HCC202): 6.08 | -log10 GI50 (184B5): 7.16 | -log10 GI50 (SUM229PE): 7.2
